US8895077B2, “Methods for preventing or treating infectious diseases caused by extracellular microorganisms, including antimicrobial-resistant strains thereof, using gallium compounds” (priority 2007, dated 2014)

Assays:
[1] = system: Vancomycin-resistant Enterococcus faecalis (VRE); test: CLSI Vancomycin disk-diffusion test; type: cell-based; details: VRE ATCC 51575; CLSI Vancomycin resistant range: ≦14 mm
Salmonella typhi = test: MIC/MBC susceptibility test, macrodilution broth method; type: cell-based; details: Salmonella typhi ATCC 6539; Tryptic soy agar with 5% sheep blood; 36° C. for 48 hours; 8.3 × 10^5 CFU/ml
Protocol: (§1) Susceptibility of various microorganisms to gallium was tested by determining the minimum inhibitory concentration (MIC) and minimum bactericidal concentration (MBC) for each microorganism using gallium nitrate. In general, MIC is determined by (i) mixing a series of broths, each containing a standard number of microorganisms, with serially diluted solutions of the gallium compound; and (ii) determining the MIC, after incubation, that is the lowest concentration of the gallium compound that inhibits the growth of the microorganism. The lower the MIC, the more susceptible the organism is. The MBC is determined by subculturing an aliquot of each sample from the MIC test on an appropriate agar plate containing no gallium compound.
(§2) Specifically, in the present experiment, two grams of gallium nitrate powder were dissolved in 10 ml of filter-sterilized deionized water and the resulting 20% (w/v) (i.e., 200 mg/ml) solution was once again filter-sterilized. Two-fold serial dilutions were prepared in sterile deionized water down to 0.156% (i.e., 1.56 mg/ml) for the tests for most of the organisms, except for the test for Candida albicans, in which 10%, 1%, 0.5%, 0.1%, 0.05%, 0.01%, 0.005% and 0.001% of gallium nitrate solutions were prepared.
(§3) All organisms were obtained from the American Type Culture Collection (ATCC), Manassas, Va. Each microorganism was picked from the seed culture (see Table 1) and inoculated in an appropriate type of broth to obtain a 0.5 McFarland turbidity standard. The standard suspension of the microorganism was then diluted to 1:100 with the broth and used for the tests.
(§4) Each microorganism was tested in duplicate by either a microdilution broth method in 96-well plates (i.e., 0.1 ml of the gallium nitrate solution mixed with 0.1 ml of the microorganism suspension) or a macrodilution broth method in test tubes (i.e., 1 ml of the gallium nitrate solution mixed with 1 ml of the microorganism suspension) as follows: […]
(§5) The growth of the microorganisms were determined by visual observation of turbidity in the samples. […]

[2] = system: Methicillin-resistant Staphylococcus aureus (MRSA); test: as above; type: cell-based; details: MRSA ATCC 33592; Tryptic soy agar with 5% sheep blood; 36° C. for 48 hours; 5.2 × 10^5 CFU/ml
Protocol: as §1, §2, §3, §4, §5

[3] = system: Vancomycin-resistant Enterococcus faecalis (VRE); test: as above; type: cell-based; details: VRE ATCC 51575; Tryptic soy agar with 5% sheep blood; 36° C. for 48 hours; 3.9 × 10^5 CFU/ml
Protocol: as §1, §2, §3, §4, §5

Campylobacter jejuni = test: MIC/MBC susceptibility test, microdilution broth method; type: cell-based; details: Campylobacter jejuni ATCC 29428; Tryptic soy agar with 5% sheep blood; 36° C. for 48 hours; 4.9 × 10^5 CFU/ml
Protocol: as §1, §2, §3
(§6) Each microorganism was tested in duplicate by either a microdilution broth method in 96-well plates (i.e., 0.1 ml of the gallium nitrate solution mixed with 0.1 ml of the microorganism suspension) or a macrodilution broth method in test tubes (i.e., 1 ml of the gallium nitrate solution mixed with 1 ml of the microorganism suspension) as follows:
(§7) Microdilution broth method: Candida albicans; Escherichia coli O157:H7; and Campylobacter jejuni.
(§8) The growth of the microorganisms were determined by visual observation of turbidity in the samples.
(§9) To determine MBC, 10 μl of each sample used in MIC were inoculated onto an appropriate agar plate and incubated.

Escherichia coli O157:H7 = test: as above; type: cell-based; details: E. coli O157:H7 ATCC 35150; Tryptic soy agar with 5% sheep blood; 36° C. for 48 hours; 1.38 × 10^6 CFU/ml
Protocol: as §1, §2, §3, §6, §7, §8, §9

Candida albicans = test: as above; type: cell-based; details: Candida albicans ATCC 10231, 27° C. for 48 hours, 9.75 × 10^5 CFU/ml
Protocol: as §1, §2, §3, §6, §7, §8, §9

[4] = healthy adults; intravenous infusion for at least 7 days; from U.S. Pat. No. 6,203,822; cited from earlier work

| Compound | zone of inhibition [1] | MBC (Salmonella typhi) | MBC [2] | MBC [3] | MBC (Campylobacter jejuni) | MBC (Escherichia coli O157:H7) | MIC (Candida albicans; Sabouraud Dextrose broth) | MBC (Candida albicans; Sabouraud dextrose agar) | tolerated dose [4] |
| --- | --- | --- | --- | --- | --- | --- | --- | --- | --- |
| CN[C@H](CC(C)C)C(=O)N[C@H]1C(=O)N[C@@H](CC(N)=O)C(=O)N[C@H]2C(=O)N[C@H]3C(=O)N[C@H](C(=O)N[C@H](C(=O)O)c4cc(O)cc(O)c4-c4cc3ccc4O)[C@H](O)c3ccc(c(Cl)c3)Oc3cc2cc(c3O[C@@H]2O[C@H](CO)[C@@H](O)[C@H](O)[C@H]2O[C@H]2C[C@](C)(N)[C@H](O)[C@H](C)O2)Oc2ccc(cc2Cl)[C@H]1O [Vancomycin] | ^bAntibiotics resistance of the organism was confirmed by CLSI Vancomycin disk-diffusion test. The zone of inhibition was 10 mm (CLSI Vancomycin resistant range: ≦14 mm). | – | – | – | – | – | – | – | – |
| O=[N+]([O-])[O-].O=[N+]([O-])[O-].O=[N+]([O-])[O-].[Ga+3] [gallium nitrate] | – | 6250 µg/mL | 12500 µg/mL | 25000 µg/mL | <780 µg/mL | 6250 µg/mL | 10000 µg/mL | >100000 µg/mL | at least 200 mg/m^2/day |
